Drawing on PubChem BioAssay (NCI), this text covers GI50 and TGI for ten compounds.

Common to all, as to assay: DTP human tumour cell line panel, 48 h
Assay [1] concerns SK-MEL-5 melanoma.
The test system of assay [2] is NCI-H460 lung.
Assay [3] deals with A498 renal.
The test system of assay [4] is EKVX NSCLC.
Assay [5] deals with SK-OV-3 ovarian.
Assay [6] deals with CCRF-CEM leukemia.
Assay [7] concerns HL-60(TB) leukemia.
Assay [8] concerns A549 NSCLC.
For assay [9], the system named is NCI-H522 lung.

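Dose response: 5 concentrations. Exposure: 48 h. Format: 96-well plates. Endpoint: linear interpolation; highest concentration if not reached. GI50 = concentration required for 50% inhibition of growth. TGI marks complete inhibition of growth.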

Consider `COc1cc2c(c(OC)c1OC)-c1ccc([O-])c(=O)cc1[C@@H](NC(C)=O)CC2.COc1cc2c(c(OC)c1OC)-c1ccc([O-])c(=O)cc1[C@@H](NC(C)=O)CC2.[Cu+2]`, for which the GI50 (as a rule, the concentration that inhibits growth by half) was 2.94 µM in [1]; 3.29 µM in assay [2]; 2.41 µM in assay [3]; 4.64 µM in assay [4]; 2.95 µM in [5]; 3.33 µM in assay [6]. Further, the figures for the GI50 in [7] and in [8] were 2.05 µM and 6.5 µM, respectively. Besides, the TGI (in general, the concentration giving total growth inhibition) was 12 µM in [1]; 15.7 µM in assay [2]; 8.53 µM in assay [3]; > 100 µM in assay [4]; > 100 µM in assay [5]; 19 µM in assay [6]. Besides, the TGI in assay [7] is 4.82 µM; in assay [8], > 100 µM.
As for `C[C@H](c1ccc(Cl)cc1N)N1C(=O)c2cc(I)ccc2N(CCCN2CCN(C)CC2)C(=O)[C@@H]1c1ccc(Cl)cc1`, the GI50 in [1] was 1.57 µM; in assay [2] it was 1.32 µM; in assay [3], 1.3 µM; in assay [4], 1.55 µM; in assay [5] it was 1.81 µM; in assay [6] it was 1.63 µM. The GI50 is 1.89 µM in assay [7] and 1.3 µM in [8]. In addition, the TGI in assay [1] stood at 2.92 µM; in [2], 2.71 µM; in [3], 2.7 µM; in assay [4], 3.21 µM; in [5], 3.2 µM; in assay [6] it was 3.47 µM. Also, the TGI in assay [7] came to 3.69 µM; in [8] it was 2.57 µM.
As to `CCCCCCCCN(CCCCCCCC)C(=N)c1ccnc2ccccc12`, the GI50 in assay [3] is 1.41 µM; in assay [4], 1.28 µM; in [9] it was 1.48 µM; in [5] it was 1.61 µM; in assay [6], 0.466 µM; in assay [7] it was 1.3 µM. In [8], the GI50 is 1.58 µM. The TGI turned out to be 2.85 µM in [3]; 2.68 µM in assay [4]; 2.92 µM in assay [9]; 3 µM in assay [5]; 2.2 µM in assay [6]; 2.97 µM in assay [7]. This compound also returned a TGI in assay [8] of 3.11 µM.
In the case of `N=c1ccn2c(n1)OC1C(OP(=O)(O)O)C(CO)OC12` (stereo not given), the TGI in [1] is > 100 µM; in assay [2] it was > 39.2 µM; in [3], > 100 µM; in [4] it was > 100 µM; in assay [9], > 100 µM; in assay [5] it was > 100 µM. Besides, the TGI in assay [7] is 13.6 µM; in assay [8], > 100 µM.
Turning to `CCC1CCc2nc3sc(C(=O)Nc4ccccc4F)c(N)c3cc2C1` (stereo not given), the GI50 in assay [1] was 0.656 µM; in assay [2], 2.71 µM; in [3], 0.0575 µM; in [9], 24.8 µM; in [5], > 100 µM; in [6], 1.72 µM. In addition, the GI50 in assay [7] is 0.302 µM; in assay [8], > 100 µM. Besides, the TGI in [1] is > 100 µM; in assay [2], > 100 µM; in assay [3] it was 0.689 µM; in assay [9], > 100 µM; in assay [5] it was > 100 µM; in assay [6] it was > 100 µM. Further, the TGI is 0.978 µM in [7] and > 100 µM in assay [8].
On to `CC(=O)O[C@H](C[C@H](C(C)C)N(C)C(=O)[C@@H](NC(=O)[C@H]1CCCCN1C)C(C)C)c1nc(C(=O)N[C@@H](Cc2ccccc2)C[C@H](C)C(=O)O)c(C)s1`, for which the GI50 was < 0.0025 µM in [1]; < 0.0025 µM in assay [2]; < 0.0025 µM in [3]; 0.00266 µM in [4]; < 0.0025 µM in assay [9]; < 0.0025 µM in [5]. Further, the GI50 in assay [6] is < 0.0025 µM; in assay [8], 0.00532 µM. For the same compound, the TGI in [1] was 0.0144 µM; in assay [2], > 25 µM; in assay [3] it was < 0.0025 µM; in assay [4] it was > 25 µM; in [9], > 25 µM; in [5] it was > 25 µM. The TGI in [6] and in assay [8] was > 25 µM throughout.
Regarding `O=c1oc2ccc(Cl)cc2c(=O)n1-c1ccc(Cl)cc1F`, the GI50 in [1] was 0.205 µM; in [2] it was 0.412 µM; in assay [3], 0.161 µM; in assay [4] it was 0.688 µM; in [9], 0.331 µM; in assay [5], 0.501 µM. The GI50 in [6] is 1.7 µM; in assay [8] it was 0.998 µM. Also, the TGI in assay [1] was found to be 0.486 µM; in assay [2], 11 µM; in [3], 0.498 µM; in [4], 11.3 µM; in assay [9], 3.22 µM; in [6], 10.4 µM. Besides, the TGI in assay [8] was > 31.6 µM.
`CC1(C)SC2C(C(=O)O)N=C(Cc3ccccc3)N2C1C(=O)O` (stereo not given): the TGI in [1] was > 100 µM; in assay [2], > 100 µM; in assay [3], > 100 µM; in [4] it was 29.7 µM; in assay [9], > 100 µM; in assay [5], > 100 µM. Besides, the TGI in assay [8] is > 100 µM.
As to `CON(C)C(=O)C(Cc1ccccc1)NC(=O)OC(C)(C)C` (stereo not given), the TGI in [1], in assay [2], in [3], in assay [4], in assay [5] and in assay [6] was > 100 µM each time. Moreover, the TGI in assay [7] and in assay [8] was > 100 µM in each case.
Regarding `O=C1C(=O)c2cc([N+](=O)[O-])ccc2-c2ccccc21`, the GI50 in [1] was 1.8 µM; in [2], 1.78 µM; in assay [3], 12.5 µM; in [4], 1.62 µM; in assay [9], 1.28 µM; in assay [5], 1.76 µM. The GI50 in assay [8] is 1.9 µM. Besides, the TGI in [1] turned out to be 3.2 µM; in assay [2], 3.35 µM; in [3], 25.1 µM; in assay [4], 3.16 µM; in assay [9], 2.68 µM; in assay [5], 3.14 µM. Also, in [8], the TGI amounted to 3.56 µM.
